Earlier results, collected in patent US12156864B2, “Analogs of cyclobenzaprine and amitryptilene” (TONIX PHARMACEUTICALS HOLDING CORP, priority 2017, dated 2024).

What was measured:
[1] = test system: veterans and males with PTSD
fibromyalgia patients = settings: cyclobenzaprine 10 to 40 mg, 12-week period
[2] = biological target: serotonin-2A (5-HT2A) receptor (Homo sapiens, UniProt P28223)
[3] = biological target: histaminergic1 (H1) receptor (Homo sapiens, UniProt P35367)
patients = settings: oral doses sufficient to treat PTSD-associated sleep disorders
[4] = humans; metabolite formed via pathway b (N-dealkylation)
PTSD combat subsample = settings: combat subsample (N=77) of a pooled analysis

Chain of serotonin-2A (5-HT2A) receptor (P28223 whole entry, species assumed): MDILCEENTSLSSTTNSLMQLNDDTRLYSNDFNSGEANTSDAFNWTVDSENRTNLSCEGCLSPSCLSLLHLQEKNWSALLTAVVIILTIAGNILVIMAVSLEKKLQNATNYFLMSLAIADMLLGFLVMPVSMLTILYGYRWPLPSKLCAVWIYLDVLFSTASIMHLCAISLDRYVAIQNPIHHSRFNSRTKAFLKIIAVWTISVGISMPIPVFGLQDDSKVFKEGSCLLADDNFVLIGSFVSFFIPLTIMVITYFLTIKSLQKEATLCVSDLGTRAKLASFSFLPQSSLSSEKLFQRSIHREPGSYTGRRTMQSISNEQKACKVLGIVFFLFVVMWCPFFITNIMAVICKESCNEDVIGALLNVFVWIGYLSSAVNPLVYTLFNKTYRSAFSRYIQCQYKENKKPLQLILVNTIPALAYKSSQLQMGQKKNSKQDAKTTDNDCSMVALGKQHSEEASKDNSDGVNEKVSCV
Chain of histaminergic1 (H1) receptor (P35367 whole entry): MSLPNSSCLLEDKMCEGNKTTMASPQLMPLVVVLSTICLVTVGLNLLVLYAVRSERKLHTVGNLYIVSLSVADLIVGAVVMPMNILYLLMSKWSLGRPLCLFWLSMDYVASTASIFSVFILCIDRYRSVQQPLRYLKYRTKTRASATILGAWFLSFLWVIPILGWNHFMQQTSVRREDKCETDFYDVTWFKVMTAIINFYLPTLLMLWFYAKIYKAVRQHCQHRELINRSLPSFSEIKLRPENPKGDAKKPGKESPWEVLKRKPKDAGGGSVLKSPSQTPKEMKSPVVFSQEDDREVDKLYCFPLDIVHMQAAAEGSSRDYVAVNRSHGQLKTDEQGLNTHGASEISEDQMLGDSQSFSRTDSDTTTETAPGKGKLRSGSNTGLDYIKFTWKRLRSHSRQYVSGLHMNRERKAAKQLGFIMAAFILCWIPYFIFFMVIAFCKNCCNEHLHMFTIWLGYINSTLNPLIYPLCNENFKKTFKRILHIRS

CN[C@H]1CC[C@@H](c2ccc(Cl)c(Cl)c2)c2ccccc21 [Sertraline]
efficacy in PTSD [1]: failed to show efficacy

CN(C)CCC=C1c2ccccc2C=Cc2ccccc21 [cyclobenzaprine, 3-(5H-dibenzo[a,d]cyclohepten-5-ylidene)-N,N-dimethyl-1-propanamine]
quality of sleep and pain score (fibromyalgia patients): significantly improved | total number of tender points and muscle tightness (fibromyalgia patients): reduction | binding and antagonist activity at 5-HT2A receptor [2]: high affinity binding and antagonist activity | binding and antagonist activity at α1-adrenergic receptor (α1-adrenergic receptor): high affinity binding and antagonist activity | binding and antagonist activity at H1 receptor [3]: high affinity binding and antagonist activity | next-day side effect (patients): drowsiness the next day

CNCCC=C1c2ccccc2C=Cc2ccccc21 [nor-cyclobenzaprine]
half-life [4]: ~48 h

COc1ccc(C(CN(C)C)C2(O)CCCCC2)cc1 (stereo not drawn) [venlafaxine ER]
effect on PTSD or disability (PTSD combat subsample): no effect
